Tests used:
[1] = test system: MOLP-8 human multiple myeloma xenografts; test: Xenograft mouse experiments A Part I, MOLP-8, single iv bolus; assay type: in vivo, CB.17 SCID mice; conditions: for tumor growth compared with PBS-treated animals: single iv bolus 250 μg/kg (nBT062 antibody […])
Method: In these mice, subcutaneous tumors were established (female CB.17 SCID mice) by inoculation with MOLP-8 cell suspensions. Treatment with a single bolus intravenous injection was conducted when tumor volumes reached an average 113 mm^3. Changes in tumor volume and body weight were monitored twice per week.
Each mouse was inoculated with 1×10^7 MOLP-8 cells subcutaneously into the area under the right shoulder. The total volume was 0.2 ml per mouse, in which the ratio of serum-free medium to matrigel (BD Bioscience, Bedford, Mass.) was 1/1 (v/v). Prior to treatment, the xenograft tumors were monitored daily and were allowed to become established.
Eleven days after tumor cell inoculation, 42 mice were selected based on tumor volumes and body weights. […] The forty-two mice were randomly divided into seven groups (A-G) of six animals each based on tumor volume.
Each of six mice in Group A received 200 μl of PBS as vehicle control.
All agents were intravenously administered as a single bolus injection through a lateral tail vein with a 1 ml syringe fitted with a 27 gauge, ½ inch needle.

MOLP-8 tumor xenografts = test: Bulky MOLP-8 tumor model (Part II / Xenograft mouse experiments B); assay type: in vivo, SCID mice; conditions: 450 μg/kg dose; mean time to reach 160 mm^3 minus control
Method: In a second set of experiments, MOLP-8 cells (1.5×10^7 cells per mouse), suspended in a 50:50 mixture of serum free media and matrigel were injected subcutaneously in the area under the right shoulder in 100 μl. Tumor volumes reached about 80 mm^3 at day 11 and the mean of the controls was about 750 mm^3 at day 25, post cell inoculation. […] Each mouse in the control group (n=6) received 0.2 ml of sterile PBS administered into the lateral tail vein (i.v.) in a bolus injection. All treatment doses were based on conjugated maytansinoid. […] Mice were randomized into eleven groups (n=6) by tumor volume using the LabCat Program. The tumor volumes ranged from 40.0 to 152.5 mm^3. The mice were dosed based on the individual body weight.
Tumor size was measured twice per week in three dimensions using the LabCat System (Tumor Measurement and Tracking, Innovative Programming Associated, Inc., Princeton, N.J.).
In this set of experiments, eighty-five mice were inoculated with MOLP-8 cells (1.5×10^7 cells/mouse) subcutaneously in the right shoulder. […] Sixty-six SCID mice bearing bulky MOLP-8 tumors with a mean tumor volume of about 80 mm^3 were randomized into eleven treatment groups (n=6).

Row | Molecule | homogeneity of anti-tumor activity in individual mice ([1]; single iv 250 μg/kg, FIG. 9) | tumor growth compared with PBS-treated animals [1] | TGD* (MOLP-8 tumor xenografts) [days]
1 | B-B4-SPP-DM1 | more heterogeneously and therefore less predicable | marked delay in tumor growth | –
2 | COc1cc2cc(c1Cl)N(C)C(=O)C[C@H](OC(=O)[C@H](C)N(C)C(=O)CCC(C)(C)S)[C@]1(C)O[C@H]1[C@H](C)[C@@H]1C[C@@](O)(NC(=O)O1)[C@H](OC)/C=C/C=C(\C)C2 [DM4, N^2′-deacetyl-N^2′-(4-methyl-4-mercapto-1-oxopentyl)-maytansine] | – | did not cause any significant inhibition of tumor growth | –
3 | nBT062-DM1 | – | – | 18
4 | huC242-DM4 (conjugate, chains of the INN, looked up, DM4 maytansinoid payload) VH: QVQLVQSGAEVKKPGETVKISCKASDYTFTYYGMNWVKQAPGQGLKWMGWIDTTTGEPTYAQKFQGRIAFSLETSASTAYLQIKSLKSEDTATYFCARRGPYNWYFDVWGQGTTVTVSS VL: DIVMTQSPLSVPVTPGEPVSISCRSSKSLLHSNGNTYLYWFLQRPGQSPQLLIYRMSNLVSGVPDRFSGSGSGTAFTLRISRVEAEDVGVYYCLQHLEYPFTFGPGTKLELK | – | did not cause any significant inhibition of tumor growth | –

From patent US9446146B2, “Methods and agents for improving targeting of CD138 expressing tumor cells” (BIOTEST AG, priority 2007, dated 2016)
